Laboratory results published in ChEMBL document CHEMBL1817626, “The structure-activity relationship of urea derivatives as anti-tuberculosis agents” (Bioorg Med Chem, 2011).
≈ marks a conversion by molar mass, not a printed value.

Columns and labels:
[1] = target: T1, Hydrolase, alpha/beta hydrolase fold family (Mycobacterium tuberculosis) (UniProt O69638); assay: Inhibition of Mycobacterium tuberculosis recombinant EphE expressed in Escherichia coli BL21 using CMNPC as substrate at 10 nM after 30 mins by fluorescent assay relative to control
T1 sequence (whole entry): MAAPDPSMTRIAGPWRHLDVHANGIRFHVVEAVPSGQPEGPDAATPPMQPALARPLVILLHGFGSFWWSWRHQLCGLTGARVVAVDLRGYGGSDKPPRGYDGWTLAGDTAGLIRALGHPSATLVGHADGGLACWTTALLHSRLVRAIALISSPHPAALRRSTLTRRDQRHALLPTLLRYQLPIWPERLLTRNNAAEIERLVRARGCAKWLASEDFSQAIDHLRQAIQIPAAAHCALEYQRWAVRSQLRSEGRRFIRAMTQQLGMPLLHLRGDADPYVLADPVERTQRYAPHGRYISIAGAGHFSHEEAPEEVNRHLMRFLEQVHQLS

Escherichia coli [2] = assay: Antibacterial activity against Escherichia coli K12; format: functional; conditions: K-12
Klebsiella pneumoniae = assay: Antibacterial activity against Klebsiella pneumoniae; format: functional
[3] = test system: Mycolicibacterium smegmatis; assay: microbe, parasite or virus in culture; conditions: str. MC2 155, 168 h
Staphylococcus aureus = assay: Antibacterial activity against Staphylococcus aureus; format: functional
[4] = target: T2, Bifunctional epoxide hydrolase 2 (Homo sapiens, UniProt P34913); assay: Inhibition of human recombinant soluble epoxide hydrolase using CMNPC as substrate after 10 mins by fluorescent assay
T2 sequence (P34913 whole entry): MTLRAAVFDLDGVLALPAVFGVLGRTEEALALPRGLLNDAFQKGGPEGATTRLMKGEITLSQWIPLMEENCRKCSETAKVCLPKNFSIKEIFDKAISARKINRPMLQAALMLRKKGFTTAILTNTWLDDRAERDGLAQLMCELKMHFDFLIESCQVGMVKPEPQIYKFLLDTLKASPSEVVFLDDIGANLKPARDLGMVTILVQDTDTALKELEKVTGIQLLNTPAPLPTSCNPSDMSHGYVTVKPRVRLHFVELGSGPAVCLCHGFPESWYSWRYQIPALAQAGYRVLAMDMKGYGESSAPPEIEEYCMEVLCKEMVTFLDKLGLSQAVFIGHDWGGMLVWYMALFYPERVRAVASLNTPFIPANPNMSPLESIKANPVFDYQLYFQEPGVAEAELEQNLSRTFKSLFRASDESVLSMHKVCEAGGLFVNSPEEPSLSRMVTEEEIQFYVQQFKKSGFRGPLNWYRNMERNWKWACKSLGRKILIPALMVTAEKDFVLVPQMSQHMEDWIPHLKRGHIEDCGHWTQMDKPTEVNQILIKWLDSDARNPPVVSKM

Pseudomonas aeruginosa = assay: Antibacterial activity against Pseudomonas aeruginosa; format: functional
Enterococcus faecium = assay: Antibacterial activity against Enterococcus faecium; format: functional
Vero = assay: Cytotoxicity against african green monkey Vero cells after 72 hrs by MTT assay; format: cell-based; conditions: Chlorocebus sabaeus
Escherichia coli [5] = assay: Antibacterial activity against Escherichia coli […] TolC; format: functional
[6] = test system: Mycobacterium tuberculosis; assay: microbe, parasite or virus in culture; conditions: H37Rv, 168 h
Bacillus anthracis = assay: microbe, parasite or virus in culture
[7] = target: T3, Epoxide hydrolase B (Mycobacterium tuberculosis) (UniProt P95276); assay: Inhibition of Mycobacterium tuberculosis recombinant EphB expressed in Escherichia coli BL21 using CMNPC as substrate at 10 nM after 30 mins by fluorescent assay relative to control
T3 sequence (whole entry): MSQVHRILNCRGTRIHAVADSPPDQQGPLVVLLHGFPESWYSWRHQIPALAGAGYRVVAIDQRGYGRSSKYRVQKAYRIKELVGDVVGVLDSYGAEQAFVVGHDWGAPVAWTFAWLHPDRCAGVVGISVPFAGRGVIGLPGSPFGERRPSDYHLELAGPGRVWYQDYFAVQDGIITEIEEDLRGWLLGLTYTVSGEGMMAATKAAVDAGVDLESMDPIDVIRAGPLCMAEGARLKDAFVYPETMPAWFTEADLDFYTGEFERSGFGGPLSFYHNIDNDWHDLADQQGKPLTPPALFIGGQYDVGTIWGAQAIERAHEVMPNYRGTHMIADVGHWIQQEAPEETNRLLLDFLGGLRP

Enterococcus faecalis = assay: Antibacterial activity against Enterococcus faecalis; format: functional

| SMILES | inhibition [1] [%] | MIC (Escherichia coli [2]) [µg/mL] | MIC (Klebsiella pneumoniae) [µg/mL] | MIC [3] [µg/mL] | MIC (Staphylococcus aureus) [µg/mL] | IC50 [4] [nM] | MIC (Pseudomonas aeruginosa) [µg/mL] | MIC (Enterococcus faecium) [µg/mL] | IC50 (Vero) [µg/mL] | MIC (Escherichia coli [5]) [µg/mL] | MIC [6] [µg/mL] | MIC (Bacillus anthracis) [µg/mL] | inhibition [7] [%] | MIC (Enterococcus faecalis) [µg/mL] |
| --- | --- | --- | --- | --- | --- | --- | --- | --- | --- | --- | --- | --- | --- | --- |
| CCCCCCCNC(=O)Nc1ccc(C)c(Cl)c1 | 99.3 | > 200 | > 200 | > 200 | > 200 | 1.6 | > 200 | > 200 | 186 (≈ 659 µM) | > 200 | 3.1 (≈ 11 µM) | > 200 | 91 | > 200 |
| CCCNC(=O)NC1C2CC3CC(C2)CC1C3 (stereo unspecified) | 73.6 | > 200 | > 200 | 200 (≈ 846 µM) | > 200 | 61.4 | > 200 | > 200 | 171 (≈ 723 µM) | > 200 | 12.5 (≈ 52.9 µM) | > 200 | 51.9 | > 200 |
| Cc1ccc(NC(=O)NC2CCCCCCC2)cc1Cl | 98.2 | > 200 | > 200 | 0.8 (≈ 2.71 µM) | > 200 | 0.4 | > 200 | > 200 | > 400 | > 200 | 0.01 (≈ 0.0339 µM) | > 200 | 83.6 | > 200 |
| CC(C)OCCNC(=O)NC12CC3CC(CC(C3)C1)C2 | 14.7 | > 200 | > 200 | 200 (≈ 713 µM) | > 200 | 260 | > 200 | > 200 | 6.4 (≈ 22.8 µM) | > 200 | 25 (≈ 89.2 µM) | > 200 | 11.9 | > 200 |
